Source: PMC3124791 (2011)

Target: BACE-1 (β-secretase) (Homo sapiens, UniProt P56817)
Test: cell-free chemoluminescent BACE-1 activity assay
Type: biochemical

Sequence of BACE-1 (β-secretase) (P56817 46-457): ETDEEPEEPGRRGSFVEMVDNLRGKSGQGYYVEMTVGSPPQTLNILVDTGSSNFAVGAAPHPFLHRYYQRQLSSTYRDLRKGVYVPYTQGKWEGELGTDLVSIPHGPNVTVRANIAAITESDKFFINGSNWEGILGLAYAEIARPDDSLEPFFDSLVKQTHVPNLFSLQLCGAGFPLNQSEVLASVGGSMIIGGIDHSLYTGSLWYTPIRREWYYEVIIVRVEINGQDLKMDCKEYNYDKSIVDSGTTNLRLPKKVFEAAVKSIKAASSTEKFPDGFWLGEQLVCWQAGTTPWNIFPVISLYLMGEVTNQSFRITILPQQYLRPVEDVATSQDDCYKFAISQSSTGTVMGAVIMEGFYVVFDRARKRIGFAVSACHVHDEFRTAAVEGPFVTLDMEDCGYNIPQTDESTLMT

O=c1cc(-c2ccc(O)cc2)oc2cc(O)cc(O)c12 [apigenin, 4',5,7-Trihydroxyflavone]
IC50: 34.2 µM

O=c1c(O)c(-c2ccc(O)cc2)oc2cc(O)cc(O)c12 [kaempferol, 3,5,7-Trihydroxy-2-(4-hydroxyphenyl)-4H-1-benzopyran-4-one]
IC50: 27.7 µM
